# Key:
# Format in all cases: cell-based
# human PBMCs [1] = assay: Induction activity of compounds on TNF-α in human PBMCs (ELISA); settings: 24 h
# Method: (§1) PBMC cells were treated with the compounds. The compounds of the present application were diluted with DMSO, for example, to about 15 mM. The reference compounds were diluted to 5 mg/mL and then sequentially added to cell plates. The compounds were serially 3-fold diluted to give a total of 8 concentrations and added to cell plates, with two replicate wells set for each concentration. DMSO was added to the negative control wells at 0.4 μL/well, and the reference compounds at 5 mg/mL were added to the positive control wells at 0.4 μL/well. The final concentration of DMSO was 0.2%. Frozen human PBMCs in cryopreservation tubes were quickly thawed in a 37° C. water bath and transferred into 50-mL centrifuge tubes. Pre-warmed RPMI1640 medium was gradually added, and the mixture was well mixed and centrifuged for 15 min before the supernatant was discarded. The cells were resuspended in a culture medium and then counted. The cell suspension was adjusted to 2.5×10^6 cells/mL with the culture medium. Diluted cells were added at 200 μL/500,000 cells/well in the 96-well plates containing the compounds.
# The plate was then washed 3 times.
# (§2) Compound activity data analysis: The OD450 values were converted to TNF-α and IFN-α contents by GraphPad Prism software analysis and fitted to give dose-response curves of the compounds. The EC50 values of the compounds were calculated.
# human PBMCs [2] = assay: Induction activity of compounds on IFN-α in human PBMCs (ELISA); settings: 24 h
# Method: as §1, §2
# [3] = molecular target: T1, hTLR7 (human Toll-like receptor 7) (Homo sapiens, UniProt Q9NYK1); assay: Agonistic activity of compounds on hTLR7 (HEK-Blue hTLR7 cells, QUANTI-Blue OD650); settings: 24 h
# T1 construct: host or cells: HEK-Blue hTLR7 cells
# T1 sequence (Q9NYK1 27-1049): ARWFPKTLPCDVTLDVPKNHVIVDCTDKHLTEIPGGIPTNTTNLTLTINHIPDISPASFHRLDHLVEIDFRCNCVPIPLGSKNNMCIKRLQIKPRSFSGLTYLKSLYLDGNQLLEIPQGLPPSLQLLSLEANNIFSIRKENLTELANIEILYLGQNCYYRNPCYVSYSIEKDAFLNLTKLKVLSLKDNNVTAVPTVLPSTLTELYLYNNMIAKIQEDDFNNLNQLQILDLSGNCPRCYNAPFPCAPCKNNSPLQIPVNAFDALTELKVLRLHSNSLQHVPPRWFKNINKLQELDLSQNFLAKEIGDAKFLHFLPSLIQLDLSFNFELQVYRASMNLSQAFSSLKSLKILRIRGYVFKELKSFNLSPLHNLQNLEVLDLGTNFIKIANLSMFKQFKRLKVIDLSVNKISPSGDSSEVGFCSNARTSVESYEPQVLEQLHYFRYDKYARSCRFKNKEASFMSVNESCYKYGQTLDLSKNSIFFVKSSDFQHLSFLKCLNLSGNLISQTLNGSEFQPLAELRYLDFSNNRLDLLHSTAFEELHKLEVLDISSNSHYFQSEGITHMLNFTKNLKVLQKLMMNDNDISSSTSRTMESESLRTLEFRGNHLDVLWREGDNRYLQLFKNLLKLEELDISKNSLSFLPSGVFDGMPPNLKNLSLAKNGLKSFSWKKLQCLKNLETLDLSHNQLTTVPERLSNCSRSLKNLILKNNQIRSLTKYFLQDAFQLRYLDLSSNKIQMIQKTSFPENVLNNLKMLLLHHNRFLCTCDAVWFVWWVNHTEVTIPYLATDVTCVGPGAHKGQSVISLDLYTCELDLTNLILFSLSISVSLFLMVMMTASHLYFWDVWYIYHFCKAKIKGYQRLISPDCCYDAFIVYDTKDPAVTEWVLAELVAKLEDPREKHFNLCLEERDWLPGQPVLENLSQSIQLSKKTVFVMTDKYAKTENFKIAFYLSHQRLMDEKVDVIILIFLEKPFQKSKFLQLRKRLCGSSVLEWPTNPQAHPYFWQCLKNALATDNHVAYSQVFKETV
# Method: (§3) In this example, the agonistic activity of the compounds of the present application on hTLR7 (human Toll-like receptor 7) and hTLR8 (human Toll-like receptor 8) was assessed; the induction activity of the compounds on human PBMCs for TNF-α and IFN-α production was assessed in human PBMCs (human peripheral blood mononuclear cells).
# (§4) All compounds were formulated in DMSO into 30 mM concentrated stock solutions and preserved at 4° C. […] HEK-Blue hTLR7 and HEK-Blue hTLR8 cell lines were purchased from InvivoGen, and human PBMCs were purchased from Shanghai Saily Biotechnology Co., Ltd. (Cat. No. XFB—HP100B).
# (§5) Compound dilution: The compounds of the present application were diluted with DMSO, for example, to about 15 mM. The reference compounds were diluted and then sequentially added to cell plates. […] DMSO was added to the negative control wells at 0.2 μL/well, and the reference compounds were added to the positive control wells. The final concentration of DMSO was 0.2%.
# (§6) Cell plating: When an 80% confluence of HEK Blue hTLR7&8 cells in the culture flask was observed under a microscope, the culture medium was discarded, 10 mL of detection medium was added, and the cells were pipetted to form a single-cell suspension. The cells were counted using a cell counter and diluted to 500,000 cells/mL. The cells were plated at 100 μL/50,000 cells/well in the 96-well plates containing the compounds. The compounds and cells were co-incubated in an incubator at 37° C. with 5% CO2 for 24 h.
# (§7) Compound activity detection: 20 μL of cell supernatant was taken from each well and added to an experimental plate containing QUANTI-Blue™ reagent at 180 μL/well. The plate was incubated at 37° C. for 1 h, and then the absorbance at 650 nm (OD650) was measured on the multimode microplate reader Flexstation III.
# (§8) The EC50 values of the compounds were calculated.
# [4] = molecular target: T2, hTLR8 (human Toll-like receptor 8) (Homo sapiens, UniProt Q9NR97); assay: Agonistic activity of compounds on hTLR8 (HEK-Blue hTLR8 cells, QUANTI-Blue OD650); settings: 24 h
# T2 construct: host or cells: HEK-Blue hTLR8 cells
# T2 sequence (Q9NR97 27-1041): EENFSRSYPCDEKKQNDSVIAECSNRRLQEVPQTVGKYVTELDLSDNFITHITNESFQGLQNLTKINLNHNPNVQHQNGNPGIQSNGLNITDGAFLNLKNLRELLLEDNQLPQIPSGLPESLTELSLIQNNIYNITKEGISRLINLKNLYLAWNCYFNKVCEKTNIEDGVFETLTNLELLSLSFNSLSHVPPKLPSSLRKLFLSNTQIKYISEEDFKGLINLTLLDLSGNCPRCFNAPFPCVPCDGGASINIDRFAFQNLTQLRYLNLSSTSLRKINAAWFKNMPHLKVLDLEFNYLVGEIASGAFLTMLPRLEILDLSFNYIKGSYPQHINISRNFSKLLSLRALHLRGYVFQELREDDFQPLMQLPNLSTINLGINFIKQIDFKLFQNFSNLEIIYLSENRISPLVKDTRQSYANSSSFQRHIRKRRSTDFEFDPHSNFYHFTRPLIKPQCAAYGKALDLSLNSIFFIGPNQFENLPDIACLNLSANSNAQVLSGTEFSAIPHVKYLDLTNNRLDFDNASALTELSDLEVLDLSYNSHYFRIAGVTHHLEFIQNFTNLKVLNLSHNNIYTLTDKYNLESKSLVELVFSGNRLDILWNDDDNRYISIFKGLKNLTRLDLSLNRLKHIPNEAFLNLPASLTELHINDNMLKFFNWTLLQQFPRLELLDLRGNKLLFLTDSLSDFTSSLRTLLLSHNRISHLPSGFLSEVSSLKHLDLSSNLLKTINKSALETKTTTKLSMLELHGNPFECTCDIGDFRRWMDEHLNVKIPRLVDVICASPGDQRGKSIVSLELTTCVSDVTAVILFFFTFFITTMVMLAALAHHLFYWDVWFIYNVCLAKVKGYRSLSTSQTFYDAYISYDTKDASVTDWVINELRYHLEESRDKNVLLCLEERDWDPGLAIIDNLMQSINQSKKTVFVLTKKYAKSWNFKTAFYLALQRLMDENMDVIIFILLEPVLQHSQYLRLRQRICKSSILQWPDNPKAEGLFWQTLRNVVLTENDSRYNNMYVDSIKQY
# Method: as §3, §4, §5, §6, §7, §8
# hTLR8 = molecular target: T3, hTLR8 (Homo sapiens, UniProt Q9NR97); assay: Stimulation of spleen cells from hTLR8-C57BL/6 mice with TLR8 agonists (ELISA)
# T3 construct: tissue Biocytogen; host or cells: spleen cells from hTLR8-C57BL/6 (hTLR8 humanized, knock-in) mice
# T3 sequence (Q9NR97 27-1041): T2 sequence (Q9NR97 27-1041)
Structure (SMILES),EC50 (human PBMCs [1]; PBMC),EC50 (human PBMCs [2]; PBMC),EC50 [3],EC50 [4],EC50 (human PBMCs [1]),EC50 (human PBMCs [2]),secretion of TNFα and IFNγ by spleen cells (hTLR8)
CCCN(Cc1ccc(N)cc1)C(=O)C1=Cc2ccc(-c3ccc(C(=O)N4CC[C@@H](O)C4)cc3)cc2N=C(N)C1 [compound 11],303 nM,453 nM,,,,,
CCCCc1nc2c(N)nc3cccc(CCCCN)c3c2o1 [compound 20],,,73.3 nM,6.52 nM,,,
CCCN(Cc1ccc(N)cc1)C(=O)C1=Cc2ccc(-c3ccc4c(c3)C(=O)OC4)cc2N=C(N)C1 [compound 12],351 nM,191 nM,1670 nM,432 nM,,,
CCCN(Cc1ccc(N)cc1)C(=O)C1=Cc2ccc(-c3cncc(CO)c3)cc2N=C(N)C1 [compound 10],375 nM,45 nM,6260 nM,33.2 nM,,,
"CCCN(CCC)C(=O)C1=Cc2ccc(-c3ccc(C(=O)N4CCCC4)cc3)cc2N=C(N)C1 [VTX-2337, reference compound]",1010 nM,> 7500 nM,> 30000 nM,21.1 nM,,,
CCCCc1nc2c(N)nc3cccc(CCCCN)c3c2s1 [compound 16],117 nM,451 nM,434 nM,55.2 nM,,,
CCCCc1nc2c(N)nc3cccc(CCCCCN)c3c2s1 [compound 14],147 nM,74 nM,191 nM,11.6 nM,,,
"CCOCc1nc2c(N)nc3ccccc3c2n1CC(C)(C)O [R848, reference compound]",,,,,2330 nM,202 nM,
CCCCc1nc2c(N)nc3cccc(CCCCCN)c3c2o1 [compound 19],,,149 nM,11.3 nM,,,
CCCCc1nc2c(N)nc3cccc(CCCCCCN)c3c2s1 [compound 17],132 nM,50 nM,192 nM,173 nM,,,
CCOCc1nc2c(N)nc3cccc(CCCCCN)c3c2s1 [compound 18],,,1060 nM,260 nM,,,
CCCN(Cc1cccc(N)c1)C(=O)C1=Cc2ccc(-c3cncc(CO)c3)cc2N=C(N)C1 [compound 13],,,14400 nM,60.8 nM,,,
CCCC[C@](C)(CO)Nc1nc(N)nc2cc(F)cnc12 [GS-9688],,,,,,,increase in the secretion of TNFα and IFNγ

# From patent publication US20250345443A1, “PHARMACEUTICAL COMPOUND AND USE THEREOF” (DUALITY BIOLOGICS (SUZHOU) CO., LTD., priority 2022, published 2025)
